Test results from ChEMBL document CHEMBL1155560, “Two complex proline esters from the sea hare Stylocheilus longicauda” (J Nat Prod, 2000).
Values after ≈ are worked out from the molar mass of the structure shown.

How the values were obtained:
Assay type in all cases: functional, cell-based
P388 = experiment: Cytotoxicity against mouse P388 cells
A549 = experiment: Cytotoxicity against human A549 cells
[1] = Cytotoxicity against human HTB38 cells; conditions: HTB-38

SMILES | IC50 (P388) [µg/mL] | IC50 (A549) [µg/mL] | IC50 [1] [µg/mL]
C=C(C/C=C/C=C/Cl)CC(OC(=O)[C@@H]1CCC(=O)N1C)C(C)(C)C (stereo partly specified) | 2.5 (≈ 7.06 µM) | 2.5 (≈ 7.06 µM) | 2.5 (≈ 7.06 µM)
C=C[C@](C)(CCC=C(C)C)c1ccc2c3c(c[nH]c13)C[C@@H](COC(C)=O)NC(=O)[C@H](C(C)C)N2C [LYNGBYATOXIN A ACETATE] | 0.05 | 0.05 | 0.05
